Laboratory results reported in patent US6172205A, “Synthetic process toward total synthesis of eleutherobin and its analogues and uses thereof” (The Trustees of Columbia in the City of New York, priority 1998, dated 2001).
Entries after “also recorded” stand apart in the source; their conditions may differ.

Key:
[1] = test system: SKVBL (MDR variant of SKOV3); experiment: Cytotoxicity by counting cells after 72 h, MDR variant cells; assay type: cell-based, human
Procedure: (§1) Human non-small cell lung carcinoma cells, A549, were maintained in RPMI 1640 containing 10% fetal bovine serum and 1% penicillin-streptomycin (Gibco Laboratories, Grand Island N.Y.) at 37° C. in 7% CO2. The Taxol-resistant cell line A549-T12 was selected for resistance to Taxol and maintained in a final concentration of 12 nM drug (21). Human ovarian carcinoma cells SKOV3 and the MDR variant SKVBL (obtained from Dr. V. Ling) were maintained in α-mem plus ribonucleotides, deoxynucleotides, 15% fetal bovine serum and 1% penicillin-streptomycin (Gibco Laboratories) at 37° C. in 5% CO2. SKVBL cells were maintained in […] vinblastine (Sigma Chemical Co.).
(§2) Taxol-resistant and sensitive cell lines were seeded into 12-well plates at a density of 5×10^4 cells per well and allowed a period of 12 h for attachment prior to treatment. Cells were exposed to 10-fold serial dilutions of each compound (10^-10 to 10^-6 M) for 72 h. Cells were then trypsinized and counted (Coulter counter model ZF0031, Coulter Corp., Miami, Fla.). The IC50 was determined by plotting cell number against log of the drug concentration and this was used to determine the concentration of compound resulting in 50% growth inhibition compared to untreated cells. Each cell line was assayed in a minimum of 3 independent experiments with each compound and the results expressed as the mean IC50.
(§3) The cytotoxic efficacy of eleutherobin and its derivatives (FIG. 6) was evaluated in two drug sensitive human cancer cell lines and their Taxol-resistant counterparts. The results are summarized in Table I in order of decreasing potency. […] The Taxol-resistant cell line SKVBL overexpresses high levels of P-glycoprotein (22). […] The only difference between the two agents is the enantiomeric relationship in the carbohydrate (2'-acetylarabinose) sector (FIG. 6). […] This cell line expressed high levels of MDR1 resulting in Taxol-resistance equal or greater than 1666 -fold compared to the Taxol-sensitive SKOV3 cell line.
(§4) ^a Cytotoxicity determined by counting cells after 72 h drug exposure.

[2] = test system: Human ovarian carcinoma cells SKOV3; experiment: Cytotoxicity by counting cells after 72 h, Taxol-sensitive cells; assay type: cell-based; settings: SK-OV-3, 72 h
Procedure: as §1, §2, §4

microtubules = settings: cited from earlier work
[3] = test system: Human non-small cell lung carcinoma cells, A549; experiment: Cytotoxicity by counting cells after 72 h, Taxol-sensitive cells; assay type: cell-based
Procedure: Taxol-resistant and sensitive cell lines were seeded into 12-well plates at a density of 5×10^4 cells per well and allowed a period of 12 h for attachment prior to treatment. […] Cells were then trypsinized and counted (Coulter counter model ZF0031, Coulter Corp., Miami, Fla.).

[4] = test system: A549-T12 (Taxol-resistant A549); experiment: Cytotoxicity by counting cells after 72 h, Taxol-resistant cells; assay type: cell-based, human
Procedure: as §1, §2, §3, §4

[5] = test system: MDR1 expressing cell line derived from human colon carcinoma HCT 116 cells; settings: cited from earlier work
microtubule protein = experiment: Stability of microtubules against Ca++-induced depolymerization; assay type: biochemical, calf; settings: 10 mM CaCl2
Procedure: Eleutherobin and its derivatives were synthesized as described (18,19). Taxol was obtained from the Drug Development Branch, National Cancer Institute (Bethesda, Md.). All compounds were dissolved in dimethyl sulfoxide (Sigma Chemical Co., St. Louis, Mo.) at stock concentrations of 5 mM and stored at -20° C. All control samples contained an equal volume of DMSO. GTP was obtained from Sigma Chemical Co. And dissolved in sterile distilled water at a concentration of 10 mM and stored at -20° C. Microtubule protein was purified from calf brains by two cycles of temperature-dependent assembly and disassembly (20) and stored in liquid nitrogen prior to use. The anti-mouse β-tubulin monoclonal antibody T-4026 was obtained from Sigma Chemical Co.
The ability of each compound to polymerize tubulin was evaluated by recording the change in turbidity of microtubule protein at 350 nm for 80 min in a spectrophotometer (UVIKON, Research Instruments Int., SD, Calif.). One mg of purified microtubule protein was diluted in assembly buffer containing 0.1 M MES, 1 mM EGTA, 0.5 mM MgCl2 and 3 M glycerol, pH 6.6. All compounds were evaluated at a concentration of 10 μM at 37° C. GTP was used at a final concentration of 1 mM. Microtubule stability was assessed by the addition of 10 mM Ca^++. changes from t=0-10 min were used to calculate initial slopes from the linear portion of each curve. These values were used to calculate the activity of each compound (relative to the activity of Taxol which was assigned a value of 100%).
The ability of each compound to polymerize and/or stabilize microtubules was assessed (FIG. 7). To investigate whether eleutherobin and its derivatives shared the microtubule stabilizing properties of Taxol, 10 mM CaCl2 was added to each sample after maximum microtubule polymerization occurred, and the effects on turbidity recorded spectrophotometrically. A positive control was included in which 1 mM GTP was used to confirm the ability of GTP-stabilized microtubules to undergo Ca^++ induced depolymerization.
The ability of this compound to stabilize microtubules formed in the presence of GTP was examined. After a period of 15 min, 10 mM Ca^++ was added and the change in turbidity recorded.

For `CO[C@]12C=C[C@](C)(O1)[C@@H](OC(=O)/C=C/c1cn(C)cn1)C[C@H]1C(C)=CC[C@H](C(C)C)[C@H]1/C=C\2CO[C@@H]1OC[C@@H](O)[C@@H](O)[C@@H]1OC(C)=O` [Eleutherobin], the IC50 ([1]; Homo sapiens, SK-OV-3, Ovarian Carcinoma SKOV3, Resistant (SKVBL), 72 h, mean of at least three independent experiments) was greater than 1000 nM, the “cross-resistance in SKVBL (in words)” value ([1]; MDR1 expressing cells, high P-glycoprotein) was “exhibited cross-resistance in an MDR1 expressing cell line; also recorded: demonstrated cross-resistance” and the “fold resistance relative to the parental cell line” value ([1]; SKVBL vs SKOV3) was no less than 1052 fold. The IC50 [2] was 9.5 nM, the “effect on microtubules (in words)” value (microtubules) was “potentiates the assembly of stable microtubules resistant to depolymerization; also recorded: promotes the polymerization of stable microtubules” and the IC50 ([3]; Homo sapiens, A549, 72 h) was 6 nM. The “fold less potent than Taxol” value ([3]; both sensitive cell lines (A549, SKOV3)) was 3 fold, the “cytotoxicity (in words)” value ([3]; sensitive cell lines (A549, SKOV3)) was “IC50 value comparable at Taxol; also recorded: within the nM range” and the “fold resistance relative to the parental cell line” value ([4]; A549-T12 vs A549, 4320 min) was 1.9 fold. The IC50 ([4]; Homo sapiens, Lung Carcinoma A549, Resistant (A549-T12), 72 h, mean of at least three independent experiments) was 12.2 nM, the “cross-resistance in A549-T12 (in words)” value ([4]; Taxol-resistant, not expressing P-glycoprotein) was “neither eleutherobin nor neo-eleutherobin displayed cross-resistance; also recorded: neither of these compounds showed cross-resistance” and the “cross-resistance in MDR1 expressing HCT 116-derived cells (in words)” value [5] was “demonstrated cross-resistance in an MDR1 expressing cell line”. For the same compound, the “stabilization against Ca++-induced depolymerization (in words)” value (microtubule protein) was “stabilized microtubules against Ca^++ -induced depolymerization”.
